Test results from US10669301B2, “Phosphoramidite building blocks for sugar-conjugated oligonucleotides” (AM CHEMICALS LLC, priority 2013, dated 2020).

Test: Hydrolysis of phosphoramidite building blocks in 95% aqueous MeCN followed by reverse-phase HPLC
Format: physicochemical
Conditions: 95% aqueous MeCN at 25° C.
Protocol: The hydrolysis of phosphoramidite building blocks 12 and 16 in 95% aqueous MeCN at 25° C. was followed by reverse-phase HPLC.

| Substance | half-life of hydrolysis |
| --- | --- |
| 5′-O-(4,4′-Dimethoxytrityl)-3′-O—[(N,N-diisopropylamino)[2-[[2-[(2,3,4,6-tetra-O-acetyl-β-D-glucopyranosyl)oxy]ethyl]oxy]ethoxy]phosphinyl]thymidine [Compound 16] | 33 h |
| 5′-O-(4,4′-Dimethoxytrityl)-3′-O—[(N,N-diisopropylamino)[3-[(2,3,4,6-tetra-O-acetyl-β-D-glucopyranosyl)oxy]propyl]phosphino]thymidine [Compound 12] | 48 h |
